# Tested on: MyoD
# Experiment: Myogenic priming of MSCs, MyoD-GFP reporter
# Format: cell-based, human
# Details: Nanog mRNA transfection prior to co-culture (Protocol B); one day incubation with 5-AZA (Protocol C)
# From the text: In light of the ability of MSCs to induce muscle regeneration, reduce muscle fibrosis and increase engraftment via paracrine effects, a method of supplementing the therapeutic effect of MSCs was developed. This method, called “myogenic priming”, increased the cell's paracrine effects on muscle cells on the one hand and promoted the MSC's own differentiation to muscle cells on the other. This priming increased the ability of MSCs to differentiate into satellite cells that undergo asymmetric division and to myoblasts that fuse with existing muscle fibers and deliver dystrophin to the cells. It was hypothesized that inducing MyoD expression in the cells would be one method of priming. This was tested by culturing CH- and UC-MSCs containing a MyoD-GFP reporter, in trans-well plates with human muscle cells (Protocol A). In this way, the extracellular vesicles and secreted factors from the muscle cells were able to contact the MSCs. A 3-day incubation resulting in a greater than 2-fold increase in MyoD expression as compared to control cells that had not be exposed to muscle cells (FIG. 3).
# In addition to co-cultures with muscle cells, various methods were employed that would induced transient stem cell characteristics in MSCs to increase their muscle differentiation abilities in response to subsequent factors. […]
row,Molecule,myoD expression
1,Nc1ncn([C@@H]2O[C@H](CO)[C@@H](O)[C@H]2O)c(=O)n1 [5-azacytidine],increased

# Tested on: MSCs
# Experiment: Priming of MSCs to a stem cell phenotype (Protocols D and E)
# Format: cell-based
# Details: 24 hours, followed by media with a pH of about 6 for 1 hour or hypoxia for 24 hours (Protocol D)
# Procedure: These incubations were also performed after first transfecting the MSCs with the modified Nanog mRNA.
row,Molecule,primed stem cell phenotype in MSCs
1,C[C@@H](N)[C@H]1CC[C@H](C(=O)Nc2ccncc2)CC1 [Y-27632],induced a primed stem cell phenotype

# Same assay, conditions: incubation for 1-6 days (Protocol E)
row,Molecule,priming of MSCs
1,O=C(NCc1ccccc1)c1csc(Nc2ccncn2)n1 [Thiazovivin],primed the MSCs to a degree
2,Cc1c[nH]c(-c2cnc(NCCNc3ccc(C#N)cn3)nc2-c2ccc(Cl)cc2Cl)n1 [CHIR99021],primed the MSCs to a degree
3,Cc1cccc(-c2[nH]ncc2-c2ccc3ncccc3n2)n1 [RepSox],primed the MSCs to a degree
4,Oc1ccc(C=Cc2cc(O)cc(O)c2)cc1 [resveratrol],primed the MSCs to a degree
5,[Cl-].[Li+] [LiCl],primed the MSCs to a degree
6,O=c1c(O)c(-c2ccc(O)c(O)c2)oc2cc(O)ccc12 [fistein],primed the MSCs to a degree
7,CN(C)C(=N)N=C(N)N [metformin],primed the MSCs to a degree
8,Nc1nccc2c1ncn2[C@@H]1C=C(CO)[C@@H](O)[C@H]1O [3-deazaneplanocin A],primed the MSCs to a degree
9,CC(C)n1nc(-c2cc3cc(O)ccc3[nH]2)c2c(N)ncnc21 [PP242],primed the MSCs to a degree
10,Cc1cccc(-c2nn(C(=S)Nc3ccccc3)cc2-c2ccnc3ccccc23)n1 [A83-01],primed the MSCs to a degree
11,CCCC(CCC)C(=O)O [valporic acid],primed the MSCs to a degree
12,N[C@@H]1C[C@H]1c1ccccc1 (racemic) [tranylcypromine],primed the MSCs to a degree
13,NC(=O)c1ccc(-c2nc(-c3ccc4c(c3)OCO4)c(-c3ccccn3)[nH]2)cc1 [SB431542],primed the MSCs to a degree

# Tested on: MSCs
# Experiment: Protocol 3 differentiation of MSCs to hybrid cells with growth factors
# Format: cell-based
# Details: individually and in combination, as replacements or in combination with HGF and PDGF
# Procedure: A shortened third protocol (Protocol 3) was examined and was also found to produce MSC-muscle cell hybrid cells. The MSCs were cultured in normal MSC culturing conditions followed by supplementation of the media for 24 hours with 5-AZA. The cells were than grown in media supplemented with 2% horse serum and HGF and PDGF for 2 weeks. […] The following growth factors were tested both individually and in combination as replacements or in combination with HGF and PDGF: EGF, IGF1, PDGFAA, PDGFBB, and VEGF. […] Additionally, the protocol could be halted by moving the treated MSCs to non-supplemented MSC media. Hybrid cells that were produced could thus be halted from further differentiation.
# All three protocols were also performed with MSCs that had first undergone myogenic priming as described above.
row,Molecule,production of hybrid cells from MSCs
1,IGF1: growth factor,found to produce hybrid cells
2,VEGF,found to produce hybrid cells
3,PDGFAA: growth factor,found to produce hybrid cells

# Source: patent publication US10973857B2, “Mesenchymal stem cell and use thereof for treatment of muscle injury and muscle-associated diseases” (EXOSTEM BIOTEC LTD., priority 2016, dated 2021)
